Measured values from patent US9126973B2, “Multiheteroaryl compounds as inhibitors of H-PGDS and their use for treating prostaglandin D2 mediated diseases” (Cayman Chemical Company, Incorporated, priority 2008, dated 2015).

How the values were obtained:
H-PGDS [1] = target: T1, H-PGDS (Homo sapiens (Human), UniProt O60760); assay: H-PGDS Fluorescence Polarization Binding Assay (FPBA); details: H-PGDS-MBP fusion enzyme, fluorescent probe, reduced glutathione 5 mM, 60-90 minutes at room temperature, 96-well format
Description: H-PGDS Fluorescence Polarization Binding Assay This assay essentially is available from Cayman Chemical Company as Catalog item #600007. The test data reported for the aforementioned Examples (H-PGDS FPBA IC50) were generated using a 96-well, instead of the 384-well, format. […] Assays were performed in 96-well microtiter plates in 100 μL of total sample volume. Excitation and emission wavelengths appropriate for the employed detection analyte were used. […] Twelve clean microfuge tubes were labeled A1 through A12. […] Dimethyl sulfoxide (50 μL) was added to each of tubes A1 through A11. The HQL-79 control solution was serially diluted by removing 50 μL from tube A12 and placing it in tube A11 with subsequent thorough mixing of the contents of tube A11. Next, 50 μL was removed from tube A11 and was placed into tube A10 with subsequent thorough mixing of the contents of tube A10. This process was repeated for tubes A9 through A2. […] A test compound may be dissolved in DMSO, ethanol, or methanol at several concentrations when the titration endpoint is unknown. […] Assay cocktail (95 μL) was added to each plate well. DMSO (5 μL) from microfuge tube A1 was added to each plate well A1 and B1. Positive control solution (5 μL) from microfuge tube A2 was added to each plate well A2 and B2. Positive control solution (5 μL) from microfuge tube A3 was added to each plate well A3 and B3. This procedure was continued until all the positive control standard dilutions were aliquoted. Test compound solutions (5 μL) were added to the wells. […] The IC50 for a particular test compound was obtained by performing a full concentration titration versus a full concentration titration of positive control. Comparison of a single concentration of a test compound to the maximum binding well provided an assessment of the relative affinity of the test compound for H-PGDS-MBP. The plate was covered and incubated for 60-90 minutes at room temperature. The FP signal is stable for at least two hours. […] The measurements were taken in the fluorescent polarization mode with the z-height set to the middle of the well and the G-factor set to 1.13 on a Tecan Safire 2 reader.

H-PGDS [2] = target: T1, H-PGDS; assay: H-PGDS Inhibitor Enzyme Immunoassay (EIA); format: biochemical; details: 25 ng H-PGDS, 40 μM PGH2, 1 mM GSH; PGD2 quantified by EIA
Description: H-PGDS Inhibitor Enzyme Immunoassay
The assay detects and measures PGD2 generated by H-PGDS. The prostanoid product is quantified via enzyme immunoassay (EIA) using a specific PGD2 antibody.
The assay is carried out by the following steps: • 1. Inhibitor screening is performed in 100 mM Tris-HCl, pH 8.0 containing 1 mM GSH, 1 mM MgCl2, 4% inhibitor/DMSO, 40 μM PGH2 and 25 ng of PGDS in a total volume of 125 μL. • 2. A reaction mixture containing 100 mM Tris-HCl, pH 8.0, 1 mM GSH, 1 mM MgCl2, 25 ng H-PGDS and 4% inhibitor or DMSO (uninhibited reaction) is preincubated at 25° C. for 10 minutes. • 3. Reactions are initiated using 5 μL of PGH2 and quenched every 15 seconds for one minute. Reactions are quenched by taking 10 μL of reaction mixture and adding to 490 μL of 100 mM phosphate buffer containing 0.1% BSA, 400 mM NaCl, 1 mM EDTA, 20 mM FeCl2, 10% 1N HCl, and 0.01% azide to prevent the non-enzymatic formation of PGD2 from PGH2. The FeCl2 serves the purpose of reducing PGH2 to 12-HHT. (Quench buffer is kept on ice at all times). • 4. Quenched samples (5 μL) are further diluted 100 fold in 495 μL of 100 mM phosphate buffer containing 0.1% BSA, 400 mM NaCl, 1 mM EDTA, and 0.01% azide for the PGD2 EIA assay. (Dilution buffers are kept on ice at all times).
The final 5000 fold diluted samples are analyzed following the protocol outlined in Cayman Chemical's commercially available PGD2 EIA kit (Cat. #512021). 50 μL of diluted sample is analyzed at least in duplicate in the EIA assay and the amount of PGD2 formed is quantified using a standard curve.

[3] = background statement with literature references; cited from earlier work

T1 sequence (O60760 whole entry, the tested form may be a part): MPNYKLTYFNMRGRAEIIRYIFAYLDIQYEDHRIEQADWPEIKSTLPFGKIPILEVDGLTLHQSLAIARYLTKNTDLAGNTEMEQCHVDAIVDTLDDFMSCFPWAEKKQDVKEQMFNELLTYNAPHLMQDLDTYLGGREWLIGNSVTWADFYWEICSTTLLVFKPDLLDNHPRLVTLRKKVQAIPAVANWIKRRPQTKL

Row | Structure (SMILES) | melting point [°C] | IC50 (H-PGDS [1]) [nM] | IC50 (H-PGDS [2]) [nM] | antiallergic and antiasthmatic activity in vivo [3]
1 | c1ccc(-c2ncc(-c3cnc(-c4ccccn4)[nH]3)cn2)cc1 [Example 9, 2-phenyl-5-(2-(pyridin-2-yl)-1H-imidazol-5-yl)pyrimidine] | 262 | 125 | 53 | 
2 | c1ccc(Oc2ncc(-c3cnc(-c4cccnc4)[nH]3)cn2)cc1 [Example 40, 2-phenoxy-5-(2-(pyridin-3-yl)-1H-imidazol-4-yl)pyrimidine] | 236 | 625 | 370 | 
3 | CCOC(=O)c1cc(-c2cnc(Oc3ccccc3)nc2)[nH]n1 [Example 54, ethyl 5-(2-phenoxypyrimidin-5-yl)-1H-pyrazole-3-carboxylate] |  | 1300 | 130 | 
4 | c1ccc(-c2ncc(-c3cnc(-c4ccccc4)[nH]3)cn2)cc1 [Example 1, 2-phenyl-5-(2-phenyl-1H-imidazol-5-yl)pyrimidine] | 253 | 250 | 12 | 
5 | c1ccc(-c2ncc(-c3csc(-c4cccnc4)n3)cn2)cc1 [Example 59, 4-(2-phenylpyrimidin-5-yl)-2-(pyridin-3-yl)thiazole] | 319 | 1000 | 150 | 
6 | Cc1nc(-c2ccccc2)[nH]c1-c1cnc(-c2ccccc2)nc1 [Example 4, 5-(4-methyl-2-phenyl-1H-imidazol-5-yl)-2-phenylpyrimidine] | 138 | 450 | 82 | 
7 | c1ccc(-c2ncc(-c3cnc(-c4ccncc4)[nH]3)cn2)cc1 [Example 13, 2-phenyl-5-(2-(pyridin-4-yl)-1H-imidazol-5-yl)pyrimidine] | 300 | 125 | 75 | 
8 | c1ccc(-c2ncc(-c3cnc(-c4cccnc4)[nH]3)cn2)cc1 [Example 10, 2-phenyl-5-(2-(pyridin-3-yl)-1H-imidazol-5-yl)pyrimidine] | 308 | 79 | 21 | 
9 | CN1CCN(C(=O)c2cc(-c3cnc(Oc4ccccc4)nc3)[nH]n2)CC1 [Example 57, (4-methylpiperazin-1-yl)(5-(2-phenoxypyrimidin-5-yl)-1H-pyrazol-3-yl)methanone] |  | 650 | 420 | 
10 | c1ccc(C(OC2CCN(CCCc3nnn[nH]3)CC2)c2ccccc2)cc1 [HQL-79] |  |  |  | antiallergic and antiasthmatic activity in vivo
11 | Cn1c(-c2cnc(-c3ccccc3)nc2)cnc1-c1ccccc1 [Example 3, 5-(1-methyl-2-phenyl-1H-imidazol-5-yl)-2-phenylpyrimidine] | 211 | 625 | 250 | 
12 | C(=C\c1ncc(-c2cnc(-c3ccccc3)nc2)[nH]1)/c1cccnc1 [Example 15, (E)-2-phenyl-5-(2-(2-(pyridin-3-yl)vinyl)-1H-imidazol-5-yl)pyrimidine] | 258 | 150 | 23 | 
13 | Fc1cccc(-c2ncc(-c3cnc(-c4cccnc4)[nH]3)cn2)c1 [Example 11, 2-(3-fluorophenyl)-5-(2-(pyridin-3-yl)-1H-imidazol-5yl)pyrimidine] | 309 | 156 | 41 | 
14 | c1ccc(Cc2ncc(-c3cnc(-c4ccccc4)nc3)[nH]2)cc1 [Example 14, 5-(2-benzyl-1H-imidazol-5-yl)-2-phenylpyrimidine] | 235 | 625 | 59 | 
15 | c1ccc(-c2ccc(-c3cnc(-c4ccccc4)[nH]3)cn2)cc1 [Example 2, 2-phenyl-5-(2-phenyl-1H-imidazol-5-yl)pyridine] | 206 | 480 | 97 | 
16 | Fc1cccc(-c2ncc(-c3cnc(-c4ccccc4)nc3)[nH]2)c1 [Example 8, 5-(2-(3-fluorophenyl)-1H-imidazol-5-yl)-2-phenylpyrimidine] | 221 | 188 | 4 | 
17 | O=C(O)C(F)(F)F.c1ccc(-c2ncc(-c3csc(C4CCNCC4)n3)cn2)cc1 [Example 61, 4-(4-(2-phenylpyrimidin-5-yl)thiazol-2-yl)piperidinium 2,2,2-trifluoroacetate] | 290 | 5000 |  | 
18 | c1ccc(-c2ncc(-c3ncco3)cn2)cc1 [Example 42, 2-(2-phenylpyrimidin-5-yl)oxazole] | 175 to 177 | 7800 |  | 
19 | c1ccc(Cc2ncc(-c3cnc(Oc4ccccc4)nc3)[nH]2)cc1 [Example 39, 5-(2-benzyl-1H-imidazol-4-yl)-2-phenoxypyrimidine] | 60 | 10000 |  | 
20 | c1ccc(CN2CCCC(c3ncc(-c4cnc(-c5ccccc5)nc4)[nH]3)C2)cc1 (racemic) [Example 23, (±)-5-(2-(1-benzylpiperidin-3-yl)-1H-imidazol-5-yl)-2-phenylpyrimidine] | 179 | 600 |  | 
21 | c1ccc(-c2ncc(-c3cnc(-c4ccccc4)o3)cn2)cc1 [Example 46, 2-phenyl-5-(2-phenylpyrimidin-5-yl)oxazole] | 228 to 231 | 125000 |  | 
22 | Fc1cccc(-c2nc(-c3cnc(-c4ccccc4)nc3)cs2)c1 [Example 58, 2-(3-fluorophenyl)-4-(2-phenylpyrimidin-5-yl)thiazole] | 228 | > 20000 |  | 
23 | Fc1cccc(-c2ncc(-c3cnc(-c4ccccc4)[nH]3)cn2)c1 [Example 6, 2-(3-fluorophenyl)-5-(2-phenyl-1H-imidazol-5-yl)pyrimidine] | 240 | 280 | 47 | 
24 | c1ccc(CN2CCC(c3ncc(-c4cnc(-c5ccccc5)nc4)[nH]3)CC2)cc1 [Example 19, 5-(2-(1-benzylpiperidin-4-yl)-1H-imidazol-5-yl)-2-phenylpyrimidine] | 223 | 80 | 6 | 
25 | O=C(c1cccnc1)N1CCC(c2nc(-c3cnc(-c4ccccc4)nc3)c[nH]2)CC1 [Example 20, (4-(4-(2-phenylpyrimidin-5-yl)-1H-imidazol-2-yl)piperidin-1-yl)(pyridin-3-yl)methanone] | 234 | 450 |  | 
26 | c1ccc(-c2ncc(-c3nnc(-c4ccccc4)[nH]3)cn2)cc1 [Example 49, 2-phenyl-5-(5-phenyl-4H-1,2,4-triazol-3-yl)pyrimidine] | 280 to 282 | 1000 | 84 | 
27 | c1ccc(Oc2ncc(-c3cnc(-c4ccccc4)[nH]3)cn2)cc1 [Example 38, 2-phenoxy-5-(2-phenyl-1H-imidazol-5-yl)pyrimidine] | 254 | 4000 |  | 
28 | COc1ccc(-c2ncc(-c3cnc(-c4ccccc4)[nH]3)cn2)cc1OC [Example 7, 2-(3,4-dimethoxyphenyl)-5-(2-phenyl-1H-imidazol-5-yl)pyrimidine] | 231 | 3500 |  | 
29 | c1ccc(-c2ncc(-c3nnc(-c4cccnc4)[nH]3)cn2)cc1 [Example 50, 2-phenyl-5-(5-(pyridin-3-yl)-1H-1,2,4-triazol-3-yl)pyrimidine] | 322 to 333 | 1000 |  | 
